In the assay the test system is HepG2 cells. The assay is described as follows: Test Example 2: inhibition of apolipoprotein B secretion from HepG2 cells, ELISA (also used for metabolites in Test Example 8). In kind it is cell-based. The following applies: Homo sapiens, 24 hours, apo B in supernatant by ELISA, read-out: Test Example 2 Inhibition of apo B secretion IC50. The procedure: Inhibition of Apolipoprotein B Secretion from HepG2 Cells
HepG2 cells were suspended in Dulbecco's Modified Eagle's Medium (DMEM) (containing 10% fetal bovine serum, 100 units/mL penicillin and 100 μg/mL streptomycin), and placed on a 96-well plate (4×10^4 cells/well), then incubated for 24 hours. After removal of the medium, DMEM was replaced by a medium containing a sample dissolved in DMSO or a medium containing DMSO (concentration of DMSO: 0.5%) and incubation was further performed for 24 hours, after which the supernatant was recovered, and concentration of apo B in the supernatant was assayed by Enzyme-Linked Immunosorbent Assay (ELISA)
ELISA was carried out as follows. Anti-human apo B monoclonal antibody (0.5 μg/well) diluted with a solution of sodium carbonate in sodium bicarbonate buffer (50 mL, pH 9.6) was placed in a 96-well plate for ELISA, and allowed to stand at room temperature for 15 hours. After washing the plate, a blocking solution (250 μL/well) was placed in the well, and allowed to stand at room temperature for 1.5 hours. After washing the plate, a standard and a sample (100 μL/well) were placed in the well and allowed to stand at room temperature for one hour. The standard was prepared by adjusting the concentration of the purified human apo B with the DMEM to 0 to 1000 ng/mL. After washing the plate, an anti-human apo B polyclonal antibody labeled with a horse radish peroxidase which was diluted in 1:1000 with DEME (100 μL/well), and allowed to stand at room temperature for one hour. After washing the plate, 2,2-azinobis(3-ethylbenzothiazoline-6-sulfonic acid) solution (100 μL/well) was placed in the well, and allowed to stand at room temperature for one hour. The reaction was stopped by addition of 2% oxalic acid (100 μL/well), and absorbency at 405 nm was measured. Concentration of apo B in the sample was calculated on the basis of a standard curve of the standard. Inhibition rate (%) was calculated from the assayed values in accordance with the following equation.
Inhibition rate (%)=100×(1 minus (concentration of apo B in sample group/concentration of apo B in DMSO group).
Based on the above equation, 50% inhibition concentration (IC50) was determined.
Inhibitory Activity on MTP and apo B Secretion Inhibition by Metabolites
In a similar manner to Test Examples 1 and 2, the activity of metabolites was assayed.
For the compound `CCOC(=O)C(COC(=O)Cc1ccc(NC(=O)c2ccccc2-c2ccc(C(F)(F)F)cc2)c(C(=O)N(C)C)c1)(C(=O)OCC)C1CCCCC1` [Example 2-41], the IC50 was found to be 1.2 nM.
Turning to `CCOC(=O)C(COC(=O)Cc1cc(C(=O)N(C)C)c(NC(=O)c2ccccc2-c2ccc(C(F)(F)F)cc2)c(Cl)c1F)(C(=O)OCC)c1ccccc1` [Example 2-66], the half-inhibitory concentration (IC50) was 57 nM.
Regarding `CCC(=O)N(C)[C@H](COC(=O)Cc1ccc(NC(=O)c2ccccc2-c2ccc(C(F)(F)F)cc2)c(C(=O)N(C)C)c1)c1ccccc1` [Example 2-51], the IC50 was determined as 47 nM.
Consider `CN(C)C(=O)c1cc(CC(=O)OC[C@@H](NS(C)(=O)=O)c2ccccc2)ccc1NC(=O)c1ccccc1-c1ccc(C(F)(F)F)cc1` [Example 2-49], for which the IC50 worked out at 49 nM.
`CCOC(=O)C(COC(=O)Cc1ccc(NC(=O)c2ccccc2-c2ccc(C(F)(F)F)cc2)c(OCC)c1)(C(=O)OCC)c1ccccc1` [Example 3, 2-(2-{3-Ethoxy-4-[(4′-trifluoromethylbiphenyl-2-carbonyl)amino]phenyl}acetoxymethyl)-2-phenylmalonic acid diethyl ester]: the 50% inhibitory concentration (IC50) was 1.9 nM.
Consider `CCOC(=O)C(COC(=O)Cc1ccc(NC(=O)c2ccc(OC(C)C)cc2-c2ccc(C(F)(F)F)cc2)c(C(=O)N(C)C)c1)(C(=O)OCC)c1ccccc1` [Example 2-83], for which the 50% inhibitory concentration (IC50) was determined as 8.87 nM.
On to `CCOC(=O)C(COC(=O)Cc1cc(Br)c(NC(=O)c2ccccc2-c2ccc(C(F)(F)F)cc2)c(C(=O)N(C)C)c1)(C(=O)OCC)c1ccccn1` [Example 2-59], for which the IC50 was 0.99 nM.
`CCCC(=O)N[C@H](COC(=O)Cc1ccc(NC(=O)c2ccccc2-c2ccc(C(F)(F)F)cc2)c(C(=O)N(C)C)c1)c1ccccc1` [Example 2-36]: the IC50 was 7.4 nM.
Consider `CCOC(=O)C(COC(=O)Cc1ccc(NC(=O)c2cccc(OC)c2-c2ccc(C(F)(F)F)cc2)c(C(=O)N(C)C)c1)(C(=O)OCC)c1ccccc1` [Example 2-85], for which the IC50 came out at 0.49 nM.
As to `CCNC(=O)C(COC(=O)Cc1ccc(NC(=O)c2ccccc2-c2ccc(C(F)(F)F)cc2)c(C(=O)N(C)C(C)C)c1)(C(=O)NCC)c1ccccc1` [Example 2-12], the half-inhibitory concentration (IC50) is 7 nM.
For `CCOC(=O)C(COC(=O)Cc1ccc(NC(=O)c2ccccc2-c2ccc(C(F)(F)F)cc2)c(O)c1)(C(=O)OCC)c1ccccc1` [Example 3-15], the IC50 stood at 49.9 nM.
For `CC(=O)N[C@H](COC(=O)Cc1ccc(NC(=O)c2ccccc2-c2ccc(C(F)(F)F)cc2)c(C(=O)N(C)C)c1)c1ccccc1` [Example 2-35], the IC50 stood at 38 nM.
Take `CCOC(=O)C(COC(=O)Cc1cc(C(=O)N(C)C)c(NC(=O)c2ccccc2-c2ccc(C(F)(F)F)cc2)cc1F)(C(=O)OCC)c1ccccc1` [Example 2-58]: the 50% inhibitory concentration (IC50) came out at 1.9 nM.
Consider `CCOC(=O)C(COC(=O)Cc1ccc(NC(=O)c2ccccc2-c2ccc(C(F)(F)F)cc2)c(OC(C)C)c1)(C(=O)OCC)c1ccccc1` [Example 3-9], for which the IC50 is 1.6 nM.
With `CCOC(=O)C(COC(=O)Cc1ccc(NC(=O)c2ccccc2-c2ccc(C(F)(F)F)cc2)c(N(C)C)c1)(C(=O)OCC)c1ccccc1` [Example 4-6], the 50% inhibitory concentration (IC50) is 7.5 nM.
For the compound `CCOC(=O)C(COC(=O)Cc1ccc(NC(=O)c2ccccc2-c2ccc(C(F)(F)F)cc2)c(C(=O)N(C)C)c1)c1ccccc1` (stereo not shown) [Example 2-50], the IC50 was 21 nM.
Consider `CCNC(=O)C(COC(=O)Cc1ccc(NC(=O)c2sc(C)nc2-c2ccc(C(F)(F)F)cc2)cc1)(C(=O)NCC)c1ccccc1` [Example 1-75], for which the IC50 is 97 nM.
For the compound `CCOC(=O)C(COC(=O)Cc1ccc(NC(=O)c2ccccc2Nc2cccc(C(F)(F)F)c2)c(C(=O)N(C)C)c1)(C(=O)OCC)c1ccccc1` [Example 2-95], the IC50 was 18 nM.
Then `CCNC(=O)C(COC(=O)c1ccc(CNC(=O)c2ccccc2-c2ccc(C(F)(F)F)cc2)cc1)(C(=O)NCC)c1ccccc1` [Example 9-6], with 59 nM; and `CCOC(=O)C(CCOC(=O)Cc1ccc(NC(=O)c2ccc(C(F)(F)F)cc2-c2ccc(C(F)(F)F)cc2)c(C(=O)N(C)C)c1)(C(=O)OCC)c1ccccc1` [Example 2-84], with 2.01 nM; and `CCOC(=O)C(COC(=O)Cc1ccc(NC(=O)c2ccccc2-c2ccc(C(F)(F)F)cc2)c(N2CCOCC2)c1)(C(=O)OCC)c1ccccc1` [Example 4-7], with 15 nM.
Turning to `CCNC(=O)C(CCOC(=O)Cc1ccc(NC(=O)c2ccccc2-c2ccc(C(F)(F)F)cc2)c(CC)c1)(C(=O)NCC)c1ccccc1` [Example 1-81], the IC50 stood at 0.49 nM.
In the case of `CCNC(=O)C(COC(=O)Cc1ccc(NC(=O)c2ccccc2-c2ccc(C(F)(F)F)cc2)c(CC(C)C)c1)(C(=O)NCC)c1ccccc1` [Example 1-82], the IC50 was determined as 0.53 nM.
`CCOC(=O)C(COC(=O)Cc1ccc(NC(=O)c2ccccc2-c2ccc(Cl)cc2)c(C(=O)N(C)C)c1)(C(=O)OCC)c1ccccc1` [Example 2-42]: the IC50 is 1.8 nM.
For the compound `CCOC(=O)C(COC(=O)Cc1ccc(NC(=O)c2ccccc2-c2ccc(Br)cc2)c(C(=O)N(C)C)c1)(C(=O)OCC)c1ccccc1` [Example 2-34], the concentration for half-maximal inhibition (IC50) came out at 2 nM.
For `CCOC(=O)C(COC(=O)Cc1ccc(NC(=O)c2ccccc2-c2ccc(C(F)(F)F)cc2)c(C(=O)N(C)C)c1)(C(=O)OCC)c1cccs1` [Example 2-105], the IC50 is 0.2 nM.
With `CCNC(=O)C(COC(=O)Cc1ccc(NC(=O)c2ccccc2Oc2ccccc2)c(C(=O)N(C)C)c1)(C(=O)NCC)c1ccccc1` [Example 2-44], the IC50 worked out at 33 nM.
As to `CCCC(COC(=O)Cc1ccc(NC(=O)c2ccccc2-c2ccc(C(F)(F)F)cc2)c(C(=O)N(C)C)c1)(C(=O)OCC)C(=O)OCC` [Example 2-114], the IC50 is 3.1 nM.
As for `COCCNC(=O)C(COC(=O)Cc1ccc(NC(=O)c2ccccc2-c2ccc(C(F)(F)F)cc2)cc1)(C(=O)NCCOC)c1ccccc1` [Example 1-73], the IC50 is 39 nM.
For the compound `CCOC(=O)C(COC(=O)Cc1ccc(NC(=O)c2ccccc2-c2ccc(C(C)C)cc2)c(C(=O)N(C)C)c1)(C(=O)OCC)c1ccccc1` [Example 2-92], the IC50 is 1.47 nM.
Consider `CCC(CC)(COC(=O)Cc1ccc(NC(=O)c2ccccc2-c2ccc(C(F)(F)F)cc2)c(C(=O)N(C)C)c1)c1ccccc1` [Example 2-98], for which the concentration for half-maximal inhibition (IC50) was 0.97 nM.
As to `CCNC(=O)C(CCOC(=O)Cc1cccc(NC(=O)c2ccccc2-c2ccc(C(F)(F)F)cc2)c1OC)(C(=O)NCC)c1ccccc1` [Example 5-12], the IC50 worked out at 1.3 nM.
Then `CCOC(=O)C(COC(=O)Cc1cc(Cl)c(NC(=O)c2ccccc2-c2ccc(C(F)(F)F)cc2)c(C(=O)N(C)C)c1)(C(=O)OCC)c1ccccc1` [Example 2-60], with 1.3 nM; and `CCNC(=O)C(COC(=O)Cc1ccc(NC(=O)c2ccccc2-c2ccc(C(F)(F)F)cc2)c(N2CCCC2)c1)(C(=O)NCC)c1ccccc1` [Example 4-3], with 7.9 nM.
In the case of `CCOC(=O)C(COC(=O)Cc1ccc(NC(=O)c2ccccc2-c2ccc(C(F)(F)F)cc2)c(C(=O)N(C)C)c1)(C(=O)OCC)c1cccc(OC)c1` [Example 2-76], the concentration for half-maximal inhibition (IC50) worked out at 0.85 nM.
On to `CCOC(=O)C(COC(=O)Cc1ccc(NC(=O)c2ccccc2-c2ccc(C(F)(F)F)cc2)c(NC(=O)OC)c1)(C(=O)OCC)c1ccccc1` [Example 9-22], for which the IC50 was 0.96 nM.
Consider `CCOC(=O)C(COC(=O)Cc1ccc(NC(=O)c2ccccc2-c2ccc(C(F)(F)F)cc2)c(N(CC)CC)c1)(C(=O)OCC)c1ccccc1` [Example 4-8], for which the IC50 was 10 nM.
Take `CCOC(=O)C(COC(=O)Cc1ccc(NC(=O)c2ccc(OCC)cc2-c2ccc(C(F)(F)F)cc2)c(C(=O)N(C)C)c1)(C(=O)OCC)c1ccccc1` [Example 2-82]: the IC50 was found to be 4.41 nM.
Consider `CCOC(=O)C(COC(=O)Cc1ccc(NC(=O)c2ccc(C(F)(F)F)cc2-c2ccc(C(F)(F)F)cc2)c(C(=O)N(C)C)c1)(C(=O)OCC)c1ccccc1` [Example 2-78], for which the IC50 worked out at 0.14 nM.
The same measure for `CCC(=O)N[C@@H](COC(=O)Cc1ccc(NC(=O)c2ccccc2-c2ccc(C(F)(F)F)cc2)c(C(=O)N(C)C)c1)c1ccccc1` [Example 2-24]: 28 nM; for `CCOC(=O)C(CCOC(=O)Cc1cccc(NC(=O)c2ccccc2-c2ccc(C(F)(F)F)cc2)c1OC(C)C)(C(=O)OCC)c1ccccc1` [Example 5-16]: 3 nM; for `CCOC(=O)C(COC(=O)Cc1ccc(NC(=O)c2ccccc2-c2ccc(C(F)(F)F)cc2)c(C(=O)N(C)C)c1)(C(=O)OCC)c1ccc(Cl)cc1` [Example 2-73]: 2.93 nM.
Then `CCOC(=O)C(COC(=O)Cc1ccc(NC(=O)c2ccccc2C(F)(F)F)c(C(=O)N(C)C)c1)(C(=O)OCC)c1ccccc1` [Example 2-31], with 43 nM.

(Values after patent US7625948B2, “Ester compound and medicinal use thereof” (Japan Tobacco Inc., priority 2002, dated 2009).)
